Columns and labels:
[1] = test system: human umbilical cord blood-derived CD34+ HSPCs; test: Human CD34+ HSPC progenitor T cell differentiation on coated plates; format: cell-based; conditions: serum-free IMDM+BIT, 9 or 14 days; matrix proteins in conjunction with DL4
Experimental: For human HSPC culture, umbilical cord blood samples were collected from consenting donors according to ethically approved procedures at Mount Sinai Hospital. CD34+ cells were isolated from the red blood cell (RBC)-lysed cord blood fraction using the EasySep™ Human CD34 Positive Selection Kit (Stemcell Technologies) according to the manufacturer's instructions. Flow cytometry was performed after every enrichment to ensure CD34 frequencies were greater than 95%. CD34+ HSPCs were cultured for 14 days on DL4 and VCAM-1 coated 96-well plates at higher seeding densities of 12,500 HSPCs/cm^2 (corresponding to 4000 cells/well). One complete medium exchange was performed at day 7 of culture and cells were returned to the same DL4 and VCAM-1 coated plates. For certain experiments, DL4-Fc was coated alone or with RetroNectin® (Takara Shuzo) or fibronectin (Sigma Aldrich) as described in the text. CD34+ cells were cultured in serum-free Iscove modified Dulbecco medium (Gibco) with 20% bovine serum albumin, insulin, and transferrin serum substitute (BIT; Stemcell Technologies), 1% GlutaMAX™ (Gibco) and 1 μg/mL low-density lipoproteins (Calbiochem). The medium was added at 50 μL/well supplemented with 100 ng/mL SCF (R&D Systems, Minneapolis, MN), 100 ng/mL Flt3L (R&D Systems), 100 ng/mL Tpo (R&D Systems) and 100 ng/mL IL-7 (R&D Systems).
Surface marker staining was performed with conjugated rat anti-mouse antibodies (BD Biosciences, San Jose, CA, Table 1). All samples were analyzed on a FACSCanto™ or FACS LSRFortessa™ flow cytometer (BD Biosciences). At day 7 of culture, cells were lifted off the plate with multiple HF rinses, stained at 1:400 dilution with antibodies against CD45, CD25, CD44, CD90, CD11 b and CD19 for 20 minutes on ice. […] Integrin expression was analyzed using antibodies against α4, β1, and β7 integrin subunits on Sca-1+cKit+ mouse HSPCs and CD34+ human umbilical blood cells. […] Flow data was analyzed and batch processed using FlowJo® software and further analyzed in Python (version 2.7.10).

[2] = test system: sorted sca1+ckit+ fetal-liver HSPCs; test: Defined T cell differentiation assay on adsorbed ligand, flow cytometry; format: cell-based, mouse
Experimental: FIG. 2a: Schematic for 2D coated DL4 assay, in which sorted E13.5 sca1+ckit+ fetal-liver HSPCs are seeded on coated DL4 ligand in standard 96-well flat bottom plates at 1000 cells/well density in 200 μl test media containing cytokines 25 ng/mL SCF, 5 ng/mL Flt3L and 1 ng/mL IL7; cells are re-fed on day 4 with fresh media containing cytokines; on day 7, cells are assayed for surface marker expression using flow cytometry.
Commercially available DL4-Fc was purchased and used for experiments from Sino Biologicals (Cedarlane Labs, Burlington, Ontario, Canada) or manufactured in-house as described below. DL4-Fc was diluted in chilled phosphate-buffered saline (PBS) at 10 μg/mL or […] and 50 μL/well was coated in standard tissue-culture 96-well plates overnight at 4° C. Wells were washed once with PBS prior to seeding cells to remove any unbound ligand from the wells. For certain experiments, wells were also coated overnight with 50 μL/well PBS containing DL4-Fc and VCAM-1-Fc (R&D) or fibronectin (Sigma) at concentrations described herein.
Sorted sca1+ckit+ HSPCs were cultured at 1000 cells/well (corresponding to 3.1×10^3 cells/cm^2) in DL4-coated 96-well plates in serum-free Iscove modified Dulbecco medium (Gibco, Rockville, MD) with 20% bovine serum albumin, insulin, and transferrin serum substitute (BIT; Stemcell Technologies), 1% GlutaMAX™ (Gibco) and 1 μg/mL low-density lipoproteins (Calbiochem, La Jolla, CA) [IMDM+BIT]. For positive control cultures, OP9 serum medium was used, composed of αMEM medium (Gibco) and 16% FBS (Hyclone™, GE Health). Serum-free αMEM+BIT medium was prepared exactly as IMDM+BIT medium except using αMEM (Gibco) as the base medium. OP9 serum medium, αMEM+BIT or IMDM+BIT serum free medium was added at 200 μL/well supplemented with 25 ng/mL Stem Cell Factor (SCF; R&D Systems, Minneapolis, MN), 5 ng/mL FMS-like Tyrosine Kinase 3 Ligand (Flt3L; R&D Systems) and 1 ng/mL Interleukin-7 (IL-7; R&D Systems) with a 50% medium exchange step at day 4 containing 2-fold concentrated cytokines as described previously^9. Design of Experiment (DOE) in silico modeling was performed using Design-Expert® (v10) using response surface method to investigate the combinatorial desirability of different concentrations of SCF, Flt3L and IL-7 for maximizing DN3 T-cell yield and minimizing the volume of IMDM+BIT medium. After DOE optimization, IMDM+BIT serum-free medium was added at 50 μL/well supplemented with 50 ng/mL SCF (R&D Systems), 10 ng/mL Flt3L (R&D Systems) and 10 ng/mL IL-7 (R&D Systems) unless described otherwise in the text with no medium exchange for the length of the assay. For the candidate factor screening in serum-free IMDM+BIT medium, the following proteins or small molecules were used at the concentrations listed: JAK inhibitor I (50 nM; EMD Millipore), IL-11 (10, 50, and 100 ng/mL; R&D Systems), IL-6 (10, 50, and 100 ng/mL; R&D Systems), IL-6R (100 ng/mL; R&D Systems), Ccl25 (1.5 μg/mL; R&D Systems), IL-7 (50, 100, and 200 ng/mL; R&D Systems), SDF1α (Cxcl12; 200 ng/mL; R&D Systems), and Leukemia Inhibitory Factor (LIF; 0.1, 1, and 10 ng/mL; EMD Millipore).
Surface marker staining was performed with conjugated rat anti-mouse antibodies (BD Biosciences, San Jose, CA, Table 1). All samples were analyzed on a FACSCanto™ or FACS LSRFortessa™ flow cytometer (BD Biosciences). At day 7 of culture, cells were lifted off the plate with multiple HF rinses, stained at 1:400 dilution with antibodies against CD45, CD25, CD44, CD90, CD11 b and CD19 for 20 minutes on ice. Human progenitor T-cells were stained at 1:100 dilution with antibodies against CD34, CD7, CD5 and CD45RA. Integrin expression was analyzed using antibodies against α4, β1, and β7 integrin subunits on Sca-1+cKit+ mouse HSPCs and CD34+ human umbilical blood cells. […]

[3] = test system: Notch pathway (CBF1-Firefly); test: NIH3T3 luciferase assay for measuring Notch activation; format: cell-based
Experimental: NIH3T3 cells were seeded at 125,000 cells/well in a 6-well plate on the previous day and transiently transfected overnight with Notch1, CBF1-Firefly and constitutively active Renilla plasmids using FuGENE® HD transfection reagent (Promega Corporation, Madison WI USA) as per the manufacturer's instructions. Transfected NIH3T3 cells were either seeded on DL4-coated plates or in DL4-conjugated MC for 24 hours prior to measuring Firefly activation normalized to Renilla expression using the dual-luciferase reporter assay system (Promega Corporation, Madison WI USA) according to the manufacturer's instructions.

[4] = test system: CD34+ HSPCs derived from cord blood; test: Fed-batch bioreactor expansion culture of human CD34+ HSPCs; format: cell-based; conditions: 500 nM, 12 days of expansion, compared to control FB cultures
Experimental: Umbilical cord blood samples were collected from consenting donors according to ethically approved procedures at Mt. Sinai Hospital (Toronto, ON, Canada). Cells were red blood cell (RBC) depleted as previously described^10, using HetaSep (StemCell Technologies). CD34+ progenitor cells were selected with the EasySep system using a human CD34+ enrichment kit (StemCell Technologies), according to the manufacturer's protocol. Freshly isolated CD34+ cells were seeded at a density of 1×10^5 total cells/mL. Cells were seeded in StemSpan-ACF medium (StemCell Technologies), supplemented with 100 ng/mL Stem Cell Factor (SCF, R&D Systems or CellGenix), 100 ng/mL FMS-like Trysine Kinase 3 Ligand (Flt3L, R&D Systems or CellGenix), 50 ng/mL Thrombopoietin (TPO, R&D Systems or CellGenix), 2 mM GlutaMAX (GIBCO) and/or 500 nM UM729 small molecule. Cells were cultured for 12 days with minimal manual manipulation during the culture period, as previously described^11.
Cells were harvested from either fed-batch or fed-batch+UM729 at day 12 and sorted for CD34+ and CD34− populations. Sorted CD34+ and CD34− cells from both culture methods were seeded along with thawed unexpanded day 0 CD34+ HSPCs at 4000 cells/96-well coated overnight with 20 μg/mL DL4 and 2.3 μg/mL VCAM-1 in serum-free IMDM+BIT medium containing 100 ng/mL SCF, Tpo, Flt3L and IL-7. […]

fibronectin [reference compound]
generation of later stage progenitor T cells from CD34+ HSPCs [1]: incapable of differentiating CD7+CD34+ progenitors further along the T cell lineage

soluble DL4: DL4 ligand supplied in soluble rather than adsorbed form
DN3 cell generation in soluble ligand ([2]; 10 μg/mL soluble DL4, day 7): no DN3 cells were generated | effect of soluble ligand on induction by adsorbed DL4 ([2]; mixture of adsorbed and soluble DL4, day 7): completely inhibited the inductive effects of adsorbed DL4 ligand | Notch1 intracellular domain translocation (CBF1-luciferase) ([3]; soluble DL4 added, cells on immobilized DL4): actively inhibits translocation of the intracellular domain of Notch1 receptor

COC(=O)c1ccc2c(c1)[nH]c1ncnc(NCCCN3CCCCC3)c12 [UM-729]
CD34− yield [4]: minimized CD34− yield | overall CD34+ yield [4]: enhanced overall CD34+ yield

B1: DL1: Delta-like-1 (DL1), alternate Notch-1 ligand (protein, UniProt O00548 18-723, looked up)
Delta-like protein 1: QVWSSGVFELKLQEFVNKKGLLGNRNCCRGGAGPPPCACRTFFRVCLKHYQASVSPEPPCTYGSAVTPVLGVDSFSLPDGGGADSAFSNPIRFPFGFTWPGTFSLIIEALHTDSPDDLATENPERLISRLATQRHLTVGEEWSQDLHSSGRTDLKYSYRFVCDEHYYGEGCSVFCRPRDDAFGHFTCGERGEKVCNPGWKGPYCTEPICLPGCDEQHGFCDKPGECKCRVGWQGRYCDECIRYPGCLHGTCQQPWQCNCQEGWGGLFCNQDLNYCTHHKPCKNGATCTNTGQGSYTCSCRPGYTGATCELGIDECDPSPCKNGGSCTDLENSYSCTCPPGFYGKICELSAMTCADGPCFNGGRCSDSPDGGYSCRCPVGYSGFNCEKKIDYCSSSPCSNGAKCVDLGDAYLCRCQAGFSGRHCDDNVDDCASSPCANGGTCRDGVNDFSCTCPPGYTGRNCSAPVSRCEHAPCHNGATCHERGHRYVCECARGYGGPNCQFLLPELPPGPAVVDLTEKLEGQGGPFPWVAVCAGVILVLMLLLGCAAVVVCVRLRLQKHRPPADPCRGETETMNNLANCQREKDISVSIIGATQIKNTNKKADFHGDHSADKNGFKARYPAVDYNLVQDLKGDDTAVRDAHSKRDTKCQPQGSSGEEKGTPTTLRGGEASERKRPDSGCSTSKDTKYQSVYVISEEKDECVIATEV
generation of DN2/DN3 progenitor T cells on adsorbed ligand ([2]; same range of coating concentrations as DL4, day 7): incapable of generating DN2 or DN3 progenitor T cells | Notch pathway activation (CBF-1 Firefly normalized to Renilla) ([3]; 24 hours, DL1-Fc at 10 and 20 μg/mL): unable to sustain progenitor T cell production or activate the Notch pathway at similar coating concentrations as DL4 ligand

B2: IL-7: Interleukin-7 cytokine (R&D Systems) (protein, UniProt P13232 26-177, looked up)
Interleukin-7: DCDIEGKDGKQYESVLMVSIDQLLDSMKEIGSNCLNNEFNFFKRHICDANKEGMFLFRAARKLRQFLKMNSTGDFDLHLLKVSEGTTILLNCTGQVKGRKPAALGEAQPTKSLEENKSLKEQKKLNDLCFLKRLLQEIKTCWNKILMGTKEH
DN3 yield with raised IL-7 concentration ([2]; IL-7 from 2 to 10 ng/mL, 50-10-10 no-feed condition vs 25-5-1 re-feed control): significantly higher yields of T lineage-committed DN3 cells than the control
